Test results from US6855730B2, “3-methylidenyl-2-indolinone modulators of protein kinase” (Sugen, Inc., priority 1998, dated 2005).
pIC50: −log10 of the molar value.

Molecular target: EGFR (Homo sapiens, UniProt P00533)
Experiment: EGFR assay (cellular ELISA, NIH 3T3/C7 cells)
Type: cell-based
Set-up: expressed in transfected cells; host or cells: NIH 3T3/C7
Conditions: read-out: cell EGF IC50
Description: EGF Receptor kinase activity in cells genetically engineered to express human EGF-R can be measured as described below:
Materials and Reagents. • a. […] 05-101 (UBI) (a monoclonal antibody recognizing an EGFR extracellular domain). • c. Anti-phosphotyosine antibody (anti-Ptyr) (polyclonal). • d. Detection antibody: Goat anti-rabbit IgG horse radish peroxidase conjugate, TAGO, Inc. Burlingame, Calif. • e. TBST buffer:
• Keep solution in dark at 4° C. until used. • h. Stock reagents of:
Pre-coat ELISA Plate • 1. […] Coated plates are good for up to 10 days when stored at 4° C. • 2. On day-of use, remove coating buffer and replace with blocking buffer (5% Carnation Instant NonFat Dry Milk in PBS). Incubate the plate, shaking, at room temperature (about 23° C. to 25° C.) for 30 minutes. Just prior to use, remove blocking buffer and wash plate 4 times with TBST buffer.
Seeding Cells • 1. […] Choose dishes having 80-90% confluence for the experiment. Trypsinize cells and stop reaction by adding 10% CS DMEM medium. Suspend cells in DMEM medium (10% CS DMEM medium) and centrifuge once at 1000 rpm at room temperature for 5 minutes. • 3. Resuspend cells in seeding medium (DMEM, 0.5% bovine serum), and count the cells using trypan blue. Viability above 90% is acceptable. Seed cells in DMEM medium (0.5% bovine serum) at a density of 10,000 cells per well, 100 μl per well, in a 96 well microtiter plate. Incubate seeded cells in 5% CO2 at 37° C. for about 40 hours.
Assay Procedures. • 1. Check seeded cells for contamination using an inverted microscope. Dilute test compounds stock (10 mg/ml in DMSO) 1:10 in DMEM medium, then transfer 5 μl to a test well for a test compounds drug dilution of 1:200 and a final DMSO concentration of 1%. Control wells receive DMSO alone. Incubate in 5% CO2 at 37° C. for one hour. • 2. Prepare EGF ligand: dilute stock EGF in DMEM so that upon transfer of 10 μl dilute EGF (1:12 dilution), 25 nM final concentration is attained. • 3. Prepare fresh 10 ml HNTG* sufficient for 100 μl per well wherein HNTG* comprises: HNTG stock (2.0 ml), milli-Q H2O (7.3 ml), EDTA, 100 mM, pH 7.0 (0.5 ml), Na3VO4 0.5 M (0.1 ml) and Na4(P2O7), 0.2 M (0.1 ml). • 4. Place on ice. • 5. After two hours incubation with drug, add prepared EGF ligand to cells, 10 μl per well, to yield a final concentration of 25 nM. Control wells receive DMEM alone. Incubate, shaking, at room temperature, for 5 minutes. • 6. Remove test compound, EGF, and DMEM. Wash cells twice with PBS. Transfer HNTG* to cells, 100 μl per well. Place on ice for 5 minutes. Meanwhile, remove blocking buffer from other ELISA plate and wash with TBST as described above. • 7. With a pipette tip securely fitted to a micropipettor, scrape cells from plate and homogenize cell material by repeatedly aspirating and dispensing the HNTG* lysis buffer. Transfer lysate to a coated, blocked, and washed ELISA plate. Incubate shaking at room temperature for one hour. • 8. Remove lysate and wash 4 times with TBST. Transfer freshly diluted anti-Ptyr antibody to ELISA plate at 100 μl per well. Incubate shaking at room temperature for 30 minutes in the presence of the anti-Ptyr antiserum (1:3000 dilution in TBST). • 9. Remove the anti-Ptyr antibody and wash 4 times with TBST. Transfer the freshly diluted TAGO 30 anti-rabbit IgG antibody to the ELISA plate at 100 μl per well. Incubate shaking at room temperature for 30 minutes (anti-rabbit IgG antibody: 1:3000 dilution in TBST). • 10. Remove detection antibody and wash 4 times with TBST. Transfer freshly prepared ABTS/H2O2 solution to ELISA plate, 100 μl per well. Incubate at room temperature for 20 minutes. ABTS/H2O2 solution: 1.2 μl 30% H2O2 in 10 ml ABTS stock. • 11. Stop reaction by adding 50 μl 5N H2SO4 (optional), and determine O.D. at 410 nm. • 12. The maximal phosphotyrosine signal is determined by subtracting the value of the negative controls from the positive controls. […]

Chain of EGFR (P00533 25-1210): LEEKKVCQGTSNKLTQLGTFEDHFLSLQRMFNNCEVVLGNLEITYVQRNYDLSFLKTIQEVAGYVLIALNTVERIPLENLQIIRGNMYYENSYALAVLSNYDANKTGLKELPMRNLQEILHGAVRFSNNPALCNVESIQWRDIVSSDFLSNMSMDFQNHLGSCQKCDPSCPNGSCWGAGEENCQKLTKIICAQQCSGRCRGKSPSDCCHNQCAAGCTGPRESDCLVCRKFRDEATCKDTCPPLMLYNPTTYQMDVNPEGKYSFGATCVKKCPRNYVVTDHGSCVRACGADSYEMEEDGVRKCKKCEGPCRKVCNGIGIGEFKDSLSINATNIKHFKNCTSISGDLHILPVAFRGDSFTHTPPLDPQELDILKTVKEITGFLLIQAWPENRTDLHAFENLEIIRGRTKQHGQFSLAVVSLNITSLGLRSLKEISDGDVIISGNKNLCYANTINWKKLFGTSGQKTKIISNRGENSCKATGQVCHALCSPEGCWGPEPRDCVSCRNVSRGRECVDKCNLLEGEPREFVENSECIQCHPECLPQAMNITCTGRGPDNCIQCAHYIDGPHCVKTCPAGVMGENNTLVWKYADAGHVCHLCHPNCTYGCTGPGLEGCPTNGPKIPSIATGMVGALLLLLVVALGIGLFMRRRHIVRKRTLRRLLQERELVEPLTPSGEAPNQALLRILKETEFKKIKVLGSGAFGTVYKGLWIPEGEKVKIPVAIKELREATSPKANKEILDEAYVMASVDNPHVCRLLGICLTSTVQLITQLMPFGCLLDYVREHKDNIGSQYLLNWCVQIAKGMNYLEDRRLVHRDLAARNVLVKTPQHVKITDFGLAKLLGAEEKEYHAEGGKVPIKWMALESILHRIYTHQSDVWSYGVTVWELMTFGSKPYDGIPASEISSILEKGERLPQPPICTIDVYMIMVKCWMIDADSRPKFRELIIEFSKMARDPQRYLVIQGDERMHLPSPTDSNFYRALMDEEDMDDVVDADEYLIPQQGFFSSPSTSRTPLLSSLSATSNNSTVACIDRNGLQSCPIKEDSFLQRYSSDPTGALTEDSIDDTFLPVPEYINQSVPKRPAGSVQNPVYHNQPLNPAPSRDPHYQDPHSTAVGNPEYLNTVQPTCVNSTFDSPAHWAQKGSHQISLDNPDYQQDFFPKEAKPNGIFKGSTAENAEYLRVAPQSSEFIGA

| pIC50 | Structure (SMILES) |
| --- | --- |
| < 4.00 | COc1ccc(/C=C2/C(=O)Nc3ccc(Cl)cc32)cc1-c1cccs1 [Example 59, 5-chloro-3-(4-Methoxy-3-thiophen-2-ylbenzylidene)-1,3-dihydroindol-2-one] |
| < 4.00 | COc1ccc(/C=C2/C(=O)Nc3ncccc32)cc1C1CCCC1 [Example 47, 3-(3-Cyclopentyl-4-methoxybenzylidene)-1,3-dihydropyrrolo[2,3-b]pyridin-2-one] |
| < 4.00 | Cc1cc(CCC(=O)O)c(/C=C2\C(=O)Nc3cc(-c4ccc(F)cc4)ccc32)[nH]1 [Example 107, 3-{2-[6-(4-Fluorophenyl)-2-oxo-1,2-dihydroindol-3-ylidenemethyl]-5-methyl-1H-pyrrol-3-yl}propionic acid] |
| < 4.00 | CCOc1cccc(-c2cc(OC)c(OC)cc2/C=C2/C(=O)Nc3ccccc32)c1 [Example 58, 3-(3′-Ethoxy-4,5-dimethoxybiphenyl-2-ylmethylene)-1,3-dihydroindol-2-one] |
| < 4.00 | COc1ccc(/C=C2/C(=O)Nc3ccc(Cl)cc32)cc1C1CCCCC1 [Example 51, 5-Chloro-3-(3-cyclohexyl-4-methoxybenzylidene)-1,3-dihydroindol-2-one] |
| < 4.00 | COc1cc(C=C2C(=O)Nc3ccccc32)c(-c2ccccc2OC)cc1OC [Example 49, 3-(4,5,2′-Trimethoxybiphenyl-2-ylmethylene)-1,3-dihydroindol-2-one] |
| < 4.00 | COc1ccc(C=C2C(=O)Nc3ccccc32)cc1-c1cccc(NC(C)=O)c1 [Example 29, N-[2′-Methoxy-5′-(2-oxo-1,2-dihydroindol-3-ylidenemethyl)-biphenyl-3-yl]-acetamide] |
| < 4.00 | CC(C)c1cc(/C=C2/C(=O)Nc3ccc(Br)cc32)cc(C(C)C)c1OCCN1CCOCC1 [Example 57, 5-Bromo-3-[3,5-diisopropyl-4-(2-morpholin-4-ylethoxy)benzylidene]-1,3-dihydroindol-2-one] |
| < 4.00 | COc1ccc(C=C2C(=O)Nc3cc(NC(C)=O)ccc32)cc1-c1cccc(NC(C)=O)c1 (mixture of isomers) [Example 63, N-[3-(3′-Acetylamino-6-methoxybiphenyl-3-ylmethylene)-2-oxo-2,3-dihydro-1H-indol-6-yl]-acetamide] |
| 4.20 | COc1cc(C)c(/C=C2/C(=O)Nc3ccc(F)cc32)cc1C(C)C [Example 30, 5-Fluoro-3-(5-isopropyl-4-methoxy-2-methyl-benzylidene)-1,3-dihydroindol-2-one] |
| 4.11 | COc1ccc(/C=C2/C(=O)Nc3ccc(F)cc32)cc1C(C)C [Example 44, 5-Fluoro-3-(3-isopropyl-4-methoxybenzylidene)-1,3-dihydroindol-2-one] |
| < 4.00 | COc1ccc2c(c1)NC(=O)/C2=C/c1ccc(OC)c(-c2ccsc2)c1 [Example 64, 6-Methoxy-3-(4-methoxy-3-thiophen-3-ylbenzylidene)-1,3-dihydroindol-2-one] |
| < 4.00 | O=C1Nc2ccc(Cl)cc2/C1=C\c1ccc2c(c1)CCO2 [Example 14, 5-Chloro-3-(2,3-dihydro-benzofuran-5-ylmethylene)-1,3-dihydroindol-2-one] |
| < 4.00 | CCOc1cccc(-c2cc(C=C3C(=O)Nc4ccccc43)ccc2OC)c1 [Example 46, 3-(3′-Ethoxy-6-methoxybiphenyl-3-ylmethylene)-1,3-dihydroindol-2-one] |
| < 4.00 | COc1ccc(/C=C2/C(=O)Nc3ccc(F)cc32)cc1-c1ccccc1 [Example 37, 5-Fluoro-3-(6-methoxybiphenyl-3-ylmethylene)-1,3-dihydroindol-2-one] |
| 4.53 | COc1ccc(/C=C2/C(=O)Nc3cc(NC(C)=O)ccc32)cc1-c1cccs1 [Example 31, N-[3-(4-Methoxy-3-thiophen-2-ylbenzylidene)-2-oxo-2,3-dihydro-1H-indol-6-yl]-acetamide] |
